“And” between values parts separate entries of the source, which are not always exact repeats. Identical values can stand only once.
Experiments:
Settings in all cases: at 1 µM
[1] = molecular target: T1, Inhibitor of nuclear factor kappa-B kinase subunit epsilon (Homo sapiens) (UniProt Q14164)
T1 sequence (whole entry): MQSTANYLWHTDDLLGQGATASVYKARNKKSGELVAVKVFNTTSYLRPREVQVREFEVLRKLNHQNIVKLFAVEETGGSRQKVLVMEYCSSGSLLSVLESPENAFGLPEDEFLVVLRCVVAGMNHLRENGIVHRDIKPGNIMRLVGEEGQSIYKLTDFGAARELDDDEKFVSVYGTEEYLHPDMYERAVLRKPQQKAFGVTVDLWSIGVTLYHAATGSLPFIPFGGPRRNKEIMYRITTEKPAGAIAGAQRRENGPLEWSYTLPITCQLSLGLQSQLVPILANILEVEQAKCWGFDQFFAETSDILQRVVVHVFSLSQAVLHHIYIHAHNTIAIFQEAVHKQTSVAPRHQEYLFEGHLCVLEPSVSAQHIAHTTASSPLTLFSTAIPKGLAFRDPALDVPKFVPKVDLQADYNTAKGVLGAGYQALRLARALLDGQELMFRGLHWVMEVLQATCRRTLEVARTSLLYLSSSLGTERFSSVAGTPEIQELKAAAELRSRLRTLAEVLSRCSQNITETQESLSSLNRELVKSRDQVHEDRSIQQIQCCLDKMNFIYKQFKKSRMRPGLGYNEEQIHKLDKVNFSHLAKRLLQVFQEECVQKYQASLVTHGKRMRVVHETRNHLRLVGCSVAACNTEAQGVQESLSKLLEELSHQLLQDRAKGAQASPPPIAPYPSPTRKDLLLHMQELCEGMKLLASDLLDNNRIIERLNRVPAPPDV

[2] = molecular target: T2, Inhibitor of nuclear factor kappa-B kinase subunit alpha (Homo sapiens) (UniProt O15111)
T2 sequence (whole entry): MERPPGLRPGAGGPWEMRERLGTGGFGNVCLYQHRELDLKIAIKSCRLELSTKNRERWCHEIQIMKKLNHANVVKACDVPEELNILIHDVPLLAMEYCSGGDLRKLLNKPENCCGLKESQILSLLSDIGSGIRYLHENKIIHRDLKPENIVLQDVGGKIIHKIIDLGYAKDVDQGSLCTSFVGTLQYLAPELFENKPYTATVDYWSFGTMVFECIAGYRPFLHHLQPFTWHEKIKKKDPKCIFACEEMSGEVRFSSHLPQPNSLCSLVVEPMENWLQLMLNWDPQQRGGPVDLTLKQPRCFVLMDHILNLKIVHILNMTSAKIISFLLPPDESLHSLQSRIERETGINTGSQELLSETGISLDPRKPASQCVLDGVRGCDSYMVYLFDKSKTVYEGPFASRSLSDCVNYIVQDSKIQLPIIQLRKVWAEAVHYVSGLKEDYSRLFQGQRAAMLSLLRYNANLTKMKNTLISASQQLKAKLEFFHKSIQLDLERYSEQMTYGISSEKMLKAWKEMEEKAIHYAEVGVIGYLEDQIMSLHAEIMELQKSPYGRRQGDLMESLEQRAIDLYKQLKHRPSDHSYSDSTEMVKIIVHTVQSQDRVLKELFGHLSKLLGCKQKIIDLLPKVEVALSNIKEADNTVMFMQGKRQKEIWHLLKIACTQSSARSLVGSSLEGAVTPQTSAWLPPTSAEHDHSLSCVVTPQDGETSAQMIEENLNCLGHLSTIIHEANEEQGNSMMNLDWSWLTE

[3] = molecular target: T3, Serine/threonine-protein kinase TBK1 (Homo sapiens) (UniProt Q9UHD2)
T3 sequence (whole entry): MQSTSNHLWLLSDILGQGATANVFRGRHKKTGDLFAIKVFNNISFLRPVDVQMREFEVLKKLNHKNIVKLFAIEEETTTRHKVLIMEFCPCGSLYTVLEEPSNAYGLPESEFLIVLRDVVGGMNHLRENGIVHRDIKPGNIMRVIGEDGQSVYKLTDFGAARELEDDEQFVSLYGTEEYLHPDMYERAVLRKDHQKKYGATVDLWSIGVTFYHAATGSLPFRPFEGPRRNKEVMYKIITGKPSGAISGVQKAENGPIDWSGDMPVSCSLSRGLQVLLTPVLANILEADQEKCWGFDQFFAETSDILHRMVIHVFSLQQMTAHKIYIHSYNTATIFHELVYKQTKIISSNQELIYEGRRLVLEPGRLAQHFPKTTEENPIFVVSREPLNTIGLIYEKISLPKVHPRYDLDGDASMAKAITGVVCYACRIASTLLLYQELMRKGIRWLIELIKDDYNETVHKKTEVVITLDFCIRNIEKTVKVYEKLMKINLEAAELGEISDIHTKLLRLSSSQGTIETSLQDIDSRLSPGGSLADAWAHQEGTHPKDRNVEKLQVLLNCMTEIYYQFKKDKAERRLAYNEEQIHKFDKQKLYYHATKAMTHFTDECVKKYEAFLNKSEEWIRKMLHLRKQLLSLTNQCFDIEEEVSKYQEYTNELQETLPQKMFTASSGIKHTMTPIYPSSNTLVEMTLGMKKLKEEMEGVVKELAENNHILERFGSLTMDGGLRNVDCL

[4] = molecular target: T4, Inhibitor of nuclear factor kappa-B kinase subunit beta (Homo sapiens) (UniProt O14920)
T4 sequence (whole entry): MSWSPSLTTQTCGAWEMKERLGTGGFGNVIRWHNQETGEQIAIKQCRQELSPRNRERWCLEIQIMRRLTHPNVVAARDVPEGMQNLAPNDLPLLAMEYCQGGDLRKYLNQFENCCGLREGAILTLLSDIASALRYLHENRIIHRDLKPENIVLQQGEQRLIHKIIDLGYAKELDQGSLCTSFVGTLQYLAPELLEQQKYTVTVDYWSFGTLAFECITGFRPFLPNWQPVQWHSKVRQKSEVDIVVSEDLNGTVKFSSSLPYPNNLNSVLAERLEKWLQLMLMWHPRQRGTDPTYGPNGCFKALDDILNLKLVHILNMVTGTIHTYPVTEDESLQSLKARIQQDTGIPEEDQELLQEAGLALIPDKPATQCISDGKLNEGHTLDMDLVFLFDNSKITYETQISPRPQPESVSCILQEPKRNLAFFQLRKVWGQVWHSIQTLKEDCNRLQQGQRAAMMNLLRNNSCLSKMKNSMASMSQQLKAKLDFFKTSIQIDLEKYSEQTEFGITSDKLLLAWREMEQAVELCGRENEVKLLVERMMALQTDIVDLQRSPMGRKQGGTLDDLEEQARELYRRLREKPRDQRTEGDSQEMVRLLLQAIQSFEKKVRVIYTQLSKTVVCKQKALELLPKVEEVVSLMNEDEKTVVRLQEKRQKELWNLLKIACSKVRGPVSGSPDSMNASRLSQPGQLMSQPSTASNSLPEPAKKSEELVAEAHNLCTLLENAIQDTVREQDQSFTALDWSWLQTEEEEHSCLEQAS

inhibition [1]	inhibition [2]	inhibition [3]	inhibition [4]	SMILES
-1%	2%	2% and 1%	5% and 1%	CCn1c(-c2nonc2N)nc2ccc(F)cc21
-4% and -3%	8% and 4%	-6% and -9%	-7% and -1%	COc1ccc(-c2nn3ncccc3c2-c2ccnc(Nc3ccc(F)c(F)c3)n2)cc1
1%	3% and -7%	5% and 7%	-3% and -1%	Nc1nc(-c2cccc(Cl)c2)c(-c2ccc3ncccc3n2)s1
38%	-4% and -2%	38% and 33%	-9%	COc1cc(Nc2nccc(-c3cnn4ncccc34)n2)cc(OC)c1
25%	39% and 36%	36% and 37%	-7%	Nc1nonc1-c1nc2cnccc2n1C1CCCCC1
-2% and 0%	-1% and 0%	0% and -2%	-1% and -2%	Cc1cc(O)cc(C)c1/C=C/c1cncc(C(=O)OC(C)(C)C)c1
-1% and 1%	2% and 21%	2% and 1%	-1% and -4%	COc1cccc(/C=N/Nc2ncnc3c2cnn3-c2cccc(OC)c2)c1
0% and 1%	1%	-1% and 0%	-4% and -6%	NS(=O)(=O)c1ccc(-c2cc3ccncc3cc2OCc2ccccc2)cc1
-2%	1% and 0%	-5% and -7%	-1% and -3%	FC(F)(F)c1ccc(-c2nn3ncccc3c2-c2ccnc(Nc3ccc4c(c3)OCCO4)n2)cc1
0% and 1%	3% and 2%	-1% and 2%	-4% and -5%	COC(=O)c1cncc(/C=C/c2c(C)cc(O)cc2C)c1
-1% and -2%	4%	-4% and -6%	-7% and -4%	Cc1ccc(C(=O)NC2CCC2)cc1-c1ccc(C(=O)NCC2CC2)cc1
-1% and 0%	1% and 2%	4% and 5%	-5%	COc1ccc(-c2ccc3c(NC(=O)C4CC4)n[nH]c3n2)cc1
17% and 15%	7% and 3%	32% and 29%	-4% and -2%	NS(=O)(=O)c1ccc(N/N=C2\C(=O)Nc3ccc(C(=O)NCCc4c[nH]cn4)cc32)cc1
-2% and -1%	3% and 2%	0% and 1%	-1% and -2%	CS(=O)(=O)CCNCc1ccc(-c2ccc3ncnc(Nc4ccc(OCc5ccccc5)c(Br)c4)c3c2)o1
1% and -1%	4%	9% and 14%	-7%	COc1cc(C=NNc2ncnc3c2cnn3Cc2ccccc2)ccc1O
-2% and 0%	3%	-4% and 0%	-5% and -6%	C#Cc1cccc(Nc2ncnc3ccc(OCCCCNCCS(C)(=O)=O)cc23)c1
13% and 11%	-1% and 0%	37% and 39%	-6% and -3%	COC(=O)c1sc(-n2cnc3cc(OC)c(OC)cc32)cc1OCc1ccccc1C(F)(F)F
-1% and 0%	0% and -2%	0% and 1%	1%	COc1c(C(N)=O)cc(-c2ccc(Cl)cc2)cc1-c1ccc(S(N)(=O)=O)cc1
-3%	2%	-4% and -2%	-2% and -5%	O=C(Nc1n[nH]c2cc(-c3cc(F)ccc3F)ccc12)C1CC1
10% and 5%	-3% and 14%	13%	1% and 2%	CCS(=O)(=O)c1ccc(OC)c(Nc2ncc(-c3cccc(-c4ccccc4F)c3)o2)c1
-2% and 0%	2% and 0%	3% and 0%	13% and -2%	CCn1c(-c2nonc2N)nc2cncc(C(=O)N3CCNCC3)c21
-3%	0% and -1%	-4% and -6%	-2% and 0%	[O-][S+]1CCN(Cc2ccc(-c3ccc4ncnc(Nc5ccc(OCc6ccccc6)c(Cl)c5)c4c3)o2)CC1
-2% and -1%	3%	-3%	-3%	COC(=O)Nc1nc2ccc(Sc3ccc(NC(=O)Nc4cc(C(F)(F)F)ccc4F)cc3)cc2[nH]1
5%	0% and -3%	23% and 21%	-2%	NS(=O)(=O)c1cccc(Nc2cc(-c3ccc(F)cc3)n[nH]2)c1
-3% and 0%	12% and 13%	-2% and 1%	0% and -3%	CCc1nccc2c1nc(-c1nonc1N)n2CC
1% and 3%	6% and 4%	-1% and 1%	-3% and -6%	Cc1ccc2c(-c3ccnc(Nc4cccc(C(F)(F)F)c4)n3)c(-c3ccccc3)nn2n1
22% and 23%	-1% and -2%	33% and 30%	-2%	COc1cc(Nc2nccc(Nc3ccc4c(C)n[nH]c4c3)n2)cc(OC)c1OC
-1% and -3%	-1% and 0%	1% and 3%	0% and -1%	O=C(O[C@H]1CN[C@H](C#Cc2cc3ncnc(Nc4ccc(OCc5cccc(F)c5)c(Cl)c4)c3s2)C1)N1CCOCC1
13% and 12%	4% and 2%	6% and 11%	-4% and -3%	NC(=O)c1cccc(Nc2nccc(Nc3cccc(F)c3)n2)c1
2% and 3%	27% and 23%	-4% and -2%	-4% and -2%	Cn1c(-c2nonc2N)nc2cnccc21

Reference: ChEMBL document CHEMBL2007661, “Compounds: GSK PKIS; Assays: UNC Frye lab” (2012)
